# Results as given in patent US20080227643A1, “Use of adjuvants to improve abscisic acid analog and abscisic acid derivative performance” (priority 2007, published 2008).
# Where “and” joins values, the source holds several entries; their conditions need not be identical. Identical values can stand only once.
# System: tomato leaf transpiration
# Assay: tomato leaf transpiration inhibition bioassay (foliar application, porometer)
# Type: in vivo, Tomato (variety: Rutgers)
# Conditions: 25 ppm ABA analog foliar applied; for Transpiration rate (% of control): 20 mL/6 plants
# Method: ABA analog effectiveness may be measured experimentally by quantifying the inhibition of transpiration in tomato leaves; this is a reliable laboratory bioassay of the level of ABA activity.
# All the research studies were conducted in the greenhouse at the research farm of Valent BioSciences Corporation (Long Grove, Ill.). Tomato (variety: Rutgers) seeds were sown in 18-cell flats filled with Promix PGX (available from Premier Horticulture Inc. Quakertown, Pa.) three weeks for germination and initial growth. Plants were then transplanted into pots (18 cm in diameter and 18 cm in height) filled with Promix BX (available from Premier Horticulture Inc. Quakertown, Pa.) and grown for one or two more weeks before treatment, depending on greenhouse temperature. During growing periods, plants received daily irrigation and weekly fertilizer (1 g/L all purpose fertilizer 20-20-20, The Scotts Company, Marysville, Ohio).
# Chemical solutions were prepared with distilled water. ABA analogs, 8′ acetylene-ABA, acid (PBI-524) and 8′ acetylene-ABA methyl ester (PBI-429) were available from Plant Biotechnology Institute, National Research Council of Canada (Saskatoon, Saskatchewan, Canada). 25 ppm PBI-429 or 25 ppm PBI-524 was prepared by dissolving 25 mg chemical in 1 L distilled water.
# Tween 20 and Brij 98 were available from Uniqema (New Castle, Del.). Silwet L-77 was available from GE Silicones (Wilton, Conn.). Agral 90 was available from Norac Concept. Inc. (Orleans, Ontario, Canada). Kinetic was available from Setre Chemical Company (Memphis, Tenn.). Capsil was available from Aquatrols (Paulsboro, N.J.). Urea and ammonium nitrate (NH4NO3) were available from Sigma-Aldrich (St. Louis, Mo.). Ethyl lactate was available from Fluka Chemie (GmbH, Buchs, Germany). Surfactant was added to 250-ppm ABA or 25-ppm ABA analogs at the concentration of 0.05% or 0.5% (v/v). Since Brij 98 was a waxy substance and difficult to dissolve in water, a stock solution of 25% Brij 98 was prepared by dissolving 25 g Brij 98 in 75 g ethyl lactate and this solution was easily dissolve in water.
# Chemical solutions were foliar applied to tomato plant leaves at the rate of 20 mL/6 plants. Plants were then placed in a transparent chamber with humidity controlled at relative humidity 40 to 60%. […] The transpiration rate of each treatment was calculated as the percentage of that of control at each day to reduce day-to-day variation caused by changes of environmental condition such as light intensity and temperature.
# All experiments were randomized complete block experimental design. Data were analyzed by analysis of variance. Duncan's new multiple range tests at α=0.05 were used for mean separations.
# [1] = average over 7 days (days 1, 2, 3, 4, 7)
structure (smiles),measurement,setting,value
"C#CC1(C)CC(=O)C=C(C)C1(O)/C=C/C(C)=C\C(=O)OC (stereo not shown) [PBI-429, 8′ acetylene-ABA methyl ester]",Transpiration rate (% of control),1 day after treatment,102 % of control and 81 % of control and 77 % of control
same,Transpiration rate (% of control),2 days after treatment,87 % of control and 64 % of control and 60 % of control
same,Transpiration rate (% of control),3 days after treatment,86 % of control and 69 % of control and 71 % of control
same,Transpiration rate (% of control),4 days after treatment,77.52 % of control and 78 % of control and 81 % of control and 77 % of control
same,Transpiration rate (% of control),7 days after treatment,95 % of control and 73 % of control
same,"Transpiration rate (% of control), Average","average of days 1, 2, 3 (Table 11)",70 % of control
same,"Transpiration rate (% of control), Average",[1],74 % of control
"C#CC1(C)CC(=O)C=C(C)C1(O)C=CC(C)=CC(=O)O (stereo not shown) [PBI-524, 8′ acetylene-ABA, acid]",Transpiration rate (% of control),1 day after treatment,95 % of control and 81 % of control
same,Transpiration rate (% of control),2 days after treatment,87 % of control and 63 % of control
same,Transpiration rate (% of control),3 days after treatment,93 % of control and 69 % of control
same,Transpiration rate (% of control),4 days after treatment,92 % of control and 79 % of control
same,Transpiration rate (% of control),7 days after treatment,101 % of control and 91 % of control
same,"Transpiration rate (% of control), Average",[1],77 % of control
